# Test results as given in paper PMC9697198, “Carbonic Anhydrase Inhibition Activities of Schiff’s Bases Based on Quinazoline-Linked Benzenesulfonamide” (Molecules, 2022).
# Tests used:
# [1] = molecular target: hCA II (Homo sapiens, UniProt P00918); test: hCA II inhibition, stopped-flow assay; format: biochemical; details: stopped-flow technique; mean from three different assays, errors ±5–10%
# [2] = molecular target: hCA I (Homo sapiens, UniProt P00915); test: hCA I inhibition, stopped-flow assay; format: biochemical; details: stopped-flow technique; mean from three different assays, errors ±5–10%
# Sequence of hCA I (P00915 whole entry): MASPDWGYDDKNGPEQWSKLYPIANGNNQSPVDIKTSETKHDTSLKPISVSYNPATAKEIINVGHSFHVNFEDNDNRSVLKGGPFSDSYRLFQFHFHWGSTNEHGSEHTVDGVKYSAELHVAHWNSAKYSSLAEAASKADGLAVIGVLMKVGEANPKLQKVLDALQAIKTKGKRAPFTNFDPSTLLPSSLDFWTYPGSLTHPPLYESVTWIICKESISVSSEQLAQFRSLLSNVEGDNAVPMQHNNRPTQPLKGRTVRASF
# [3] = molecular target: hCA IX (Homo sapiens, UniProt Q16790); test: hCA IX inhibition, stopped-flow assay; format: biochemical; details: for Selectivity Analysis hCA I/IX / Selectivity Analysis hCA II/IX: selectivity index (SI); for Selectivity Analysis hCA I/IX: ratio of Ki hCA I to Ki hCA IX; for Selectivity Analysis hCA II/IX: ratio of Ki hCA II to Ki hCA IX; for Ki: stopped-flow technique, mean from three different assays, errors ±5–10%
# [4] = molecular target: hCA XII (Homo sapiens, UniProt O43570); test: hCA XII inhibition, stopped-flow assay; format: biochemical; details: for Selectivity Analysis hCA I/XII / Selectivity Analysis hCA II/XII: selectivity index (SI); for Selectivity Analysis hCA I/XII: ratio of Ki hCA I to Ki hCA XII; for Selectivity Analysis hCA II/XII: ratio of Ki hCA II to Ki hCA XII; for Ki: stopped-flow technique, mean from three different assays, errors ±5–10%
# Sequence of hCA XII (O43570 25-354): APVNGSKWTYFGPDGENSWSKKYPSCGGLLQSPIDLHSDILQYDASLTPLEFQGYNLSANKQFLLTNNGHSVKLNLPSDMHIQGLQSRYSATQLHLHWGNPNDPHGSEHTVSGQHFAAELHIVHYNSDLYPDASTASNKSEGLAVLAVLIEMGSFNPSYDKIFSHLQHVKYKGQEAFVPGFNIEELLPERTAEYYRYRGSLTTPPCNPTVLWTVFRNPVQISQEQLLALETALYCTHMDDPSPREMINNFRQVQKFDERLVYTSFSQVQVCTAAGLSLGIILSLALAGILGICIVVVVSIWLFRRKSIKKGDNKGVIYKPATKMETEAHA
Structure (SMILES),Ki [1] [nM],Ki [2] [nM],Selectivity Analysis hCA I/IX [3],Selectivity Analysis hCA II/IX [3],Ki [3] [nM],Selectivity Analysis hCA I/XII [4],Selectivity Analysis hCA II/XII [4],Ki [4] [nM],melting point [°C]
"CC(=NNC(=O)CSc1nc2ccccc2c(=O)n1CCc1ccc(S(N)(=O)=O)cc1)c1ccccc1N [Compound 18, 4-(2-(2-((2-(2-(1-(2-Aminophenyl)ethylidene)hydrazineyl)-2-oxoethyl)thio)-4-oxoquinazolin-3(4H)-yl)ethyl)benzenesulfonamide]",35.2,824,22.46,0.96,36.7,45.04,1.92,18.3,264 to 265
"CC(=NNC(=O)CSc1nc2ccccc2c(=O)n1CCc1ccc(S(N)(=O)=O)cc1)c1ccc(N)cc1 [Compound 19, 4-(2-(2-((2-(2-(1-(4-Aminophenyl)ethylidene)hydrazineyl)-2-oxoethyl)thio)-4-oxoquinazolin-3(4H)-yl)ethyl)benzenesulfonamide]",59.3,439,75.77,10.22,5.8,27.64,3.72,15.9,308 to 309
"CC(=NNC(=O)CSc1nc2ccccc2c(=O)n1CCc1ccc(S(N)(=O)=O)cc1)c1ccc(Br)cc1 [Compound 20, 4-(2-(2-((2-(2-(1-(4-Bromophenyl)ethylidene)hydrazineyl)-2-oxoethyl)thio)-4-oxoquinazolin-3(4H)-yl)ethyl)benzenesulfonamide]",698,1360,13.6,7.01,99.6,15.27,7.86,88.8,302 to 303
"CC(=NNC(=O)CSc1nc2ccccc2c(=O)n1CCc1ccc(S(N)(=O)=O)cc1)c1ccccc1Cl [Compound 21, 4-(2-(2-((2-(2-(1-(2-Chlorophenyl)ethylidene)hydrazineyl)-2-oxoethyl)thio)-4-oxoquinazolin-3(4H)-yl)ethyl)benzenesulfonamide]",324,1140,25.27,7.15,45.3,19.74,5.59,58,273 to 275
"CC(=NNC(=O)CSc1nc2ccccc2c(=O)n1CCc1ccc(S(N)(=O)=O)cc1)c1cccc(Cl)c1 [Compound 22, 4-(2-(2-((2-(2-(1-(3-Chlorophenyl)ethylidene)hydrazineyl)-2-oxoethyl)thio)-4-oxoquinazolin-3(4H)-yl)ethyl)benzenesulfonamide]",339,867,11.51,4.50,75.3,18.49,7.23,46.9,297 to 298
"CC(=NNC(=O)CSc1nc2ccccc2c(=O)n1CCc1ccc(S(N)(=O)=O)cc1)c1ccc(Cl)cc1 [Compound 23, 4-(2-(2-((2-(2-(1-(4-Chlorophenyl)ethylidene)hydrazineyl)-2-oxoethyl)thio)-4-oxoquinazolin-3(4H)-yl)ethyl)benzenesulfonamide]",157,563,8.67,2.41,65,–,2.56,61.2,278 to 280
"CC(=NNC(=O)CSc1nc2ccccc2c(=O)n1CCc1ccc(S(N)(=O)=O)cc1)c1ccc(F)cc1 [Compound 24, 4-(2-(2-((2-(2-(1-(4-Fluorophenyl)ethylidene)hydrazineyl)-2-oxoethyl)thio)-4-oxoquinazolin-3(4H)-yl)ethyl)benzenesulfonamide]",39.5,187,6.55,1.38,28.5,7.35,1.55,25.4,299 to 300
"CC(=NNC(=O)CSc1nc2ccccc2c(=O)n1CCc1ccc(S(N)(=O)=O)cc1)c1ccc(C)cc1 [Compound 25, 4-(2-(4-Oxo-2-((2-oxo-2-(2-(1-(p-tolyl)ethylidene)hydrazineyl)ethyl)thio)quinazolin-3(4H)-yl)ethyl)benzenesulfonamide]",126,627,14.28,2.87,43.9,10.90,2.19,57.5,288 to 290
"CC(=NNC(=O)CSc1nc2ccccc2c(=O)n1CCc1ccc(S(N)(=O)=O)cc1)c1ccccn1 [Compound 26, 4-(2-(4-Oxo-2-((2-oxo-2-(2-(1-(pyridin-2-yl)ethylidene)hydrazineyl)ethyl)thio)quinazolin-3(4H)-yl)ethyl)benzenesulfonamide]",22.8,52.8,0.77,0.33,68.2,1.85,0.80,28.5,300 to 301
